ChEMBL document CHEMBL4325918, “Allosteric CB1 Receptor Modulators for the Treatment of CB1 Related Diseases and Conditions” (ACS Med Chem Lett, 2018)
Activity calls are given as the source filed them. No cut-off for these calls is given here.

How the values were obtained:
Cannabinoid receptor 1 [1] = molecular target: T1, Cannabinoid receptor 1 (Homo sapiens, UniProt P21554); experiment: Allosteric modulation of CB1 receptor (unknown origin) assessed as inhibition of CP55940-induced [35S]GTPgammaS binding; type: functional
T1 sequence (P21554 whole entry): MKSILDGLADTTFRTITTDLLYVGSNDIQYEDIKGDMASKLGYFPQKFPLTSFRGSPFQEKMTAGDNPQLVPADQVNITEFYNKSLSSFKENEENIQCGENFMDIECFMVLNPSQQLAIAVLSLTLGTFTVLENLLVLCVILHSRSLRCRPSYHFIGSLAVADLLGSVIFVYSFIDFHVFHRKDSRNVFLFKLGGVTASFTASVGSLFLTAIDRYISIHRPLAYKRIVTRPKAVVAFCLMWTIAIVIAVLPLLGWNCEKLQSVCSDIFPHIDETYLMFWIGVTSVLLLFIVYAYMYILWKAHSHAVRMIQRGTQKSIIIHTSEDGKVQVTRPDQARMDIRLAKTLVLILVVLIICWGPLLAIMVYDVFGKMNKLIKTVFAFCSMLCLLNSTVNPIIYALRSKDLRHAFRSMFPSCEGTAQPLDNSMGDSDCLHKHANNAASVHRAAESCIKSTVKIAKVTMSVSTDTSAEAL

Cannabinoid receptor 1 [2] = molecular target: T1, Cannabinoid receptor 1; experiment: Agonist activity at CB1 receptor (unknown origin) relative to CP55940
[3] = Half life in Sprague-Dawley rat; type: ADME; conditions: in vivo
Rattus norvegicus = experiment: Reduction in cocaine-induced reinstatement of cocaine seeking behavior in Sprague-Dawley rat at 10 mg/kg; type: functional, organism-based

SMILES: O=C(Nc1ccc(Cl)cc1)Nc1cccc(N2CCC2)c1
- IC50 (Cannabinoid receptor 1 [1]): 1380 nM

SMILES: O=C(Nc1ccc(Cl)cc1)Nc1cccc(-c2cccc([N+](=O)[O-])c2)c1
- IC50 (Cannabinoid receptor 1 [1]): 452 nM

SMILES: Cc1cc(-c2cccc(NC(=O)Nc3ccc(Cl)cc3)c2)cs1
- Emax (Cannabinoid receptor 1 [2]): 3.7%
- IC50 (Cannabinoid receptor 1 [1]): 776 nM

SMILES: O=C(Nc1ccc(Cl)cc1)Nc1cccc(-c2ccoc2)c1
- IC50 (Cannabinoid receptor 1 [1]): 440 nM

SMILES: O=C(Nc1ccc(Cl)cc1)Nc1cccc(-c2ccccn2)c1
- IC50 (Cannabinoid receptor 1 [1]): 2650 nM

SMILES: Cc1ccc(-c2cccc(NC(=O)Nc3ccc(Cl)cc3)c2)s1
- Emax (Cannabinoid receptor 1 [2]): 4.6%
- IC50 (Cannabinoid receptor 1 [1]): 372 nM

SMILES: O=C(Nc1ccc(Cl)cc1)Nc1cccc(-c2cc(Cl)cc(Cl)c2)c1
- IC50 (Cannabinoid receptor 1 [1]): 299 nM

SMILES: O=C(Nc1ccc(Cl)cc1)Nc1cccc(-c2ccccc2)c1
- IC50 (Cannabinoid receptor 1 [1]): 437 nM

SMILES: O=C(Nc1ccc(Cl)cc1)Nc1cccc(-c2ccc(F)cc2F)c1
- IC50 (Cannabinoid receptor 1 [1]): 353 nM

SMILES: O=C(Nc1ccc(Cl)cc1)Nc1cccc(-c2ccc(F)cc2)c1
- IC50 (Cannabinoid receptor 1 [1]): 151 nM
- half-life [3]: 5 h
- Activity (Rattus norvegicus): Active

SMILES: O=C(Nc1ccc(Cl)cc1)Nc1cccc(-c2ccsc2)c1
- Emax (Cannabinoid receptor 1 [2]): 28.9%
- IC50 (Cannabinoid receptor 1 [1]): 164 nM
